Here are results for four substances from article PMC13339814 (Microbiology Spectrum, 2026).

Entries after “also recorded” stand apart in the source; their conditions may differ. Where no end group is shown, it is not given here. The star is where a group is joined. pNA = O=[N+]([O-])c1ccc(N*)cc1; Cbz = O=C(OCc1ccccc1)*

Series [1] deals with PSP692. Kind of series: purified PSP692 (1 µM) in 1× phosphate-buffered saline (PBS) at pH 6.0. The following applies: Segatella copri, 37°C.
The test system of series [2] is PSP464. Kind of series: purified PSP464 (1 µM) in 100 mM glycine-HCl buffer at pH 4.0. The following applies: Stenotrophomonas maltophilia, 37°C.
Series [3] relates to PSP464. Kind of series: HRMS analysis of 11-mer gliadin peptide degradation by PSP464. In kind it is in vitro ADME, Stenotrophomonas maltophilia. The procedure:
Gliadin degradation reactions were performed in duplicate for PSP464 activity on the 11-mer and PSP692 activity on the 33-mer at time points of 30 min, 1 h, 2 h, and 4 h. Following incubation, duplicate reactions were pooled prior to downstream processing to minimize technical variability. Reactions were quenched by the addition of trifluoroacetic acid (TFA) in water to a final concentration of 0.1% (vol/vol). To remove intact enzyme and retain low-molecular-weight degradation products, samples were centrifuged through Microcon centrifugal filter units with a 10 kDa MWCO at room temperature for 30 min. The filtrate, containing peptides <10 kDa, was collected and subjected to C18 ZipTip protocol for desalting prior to LC-MS/MS analysis. The elution solvent for desalting was 50% acetonitrile with 0.1% formic acid in water.
Samples were analysed on a Bruker IMPACT HD mass spectrometer in HRMS mode. MS scans were acquired over an m/z range of 50–3,500 at high resolution in positive ion mode. Raw data were processed in MZMine v3.9 ([38]), and the fragment list was exported as an Excel list followed by manual annotation. Chromatograms were generated for identified gliadin-derived peptides across the time course.

The subject of series [4] is PSP692. Kind of series: purified recombinant PSP692 in pH 6 PBS buffer. The following applies: Segatella copri, 37°C, up to 4 h.
Series [5] concerns human gastrointestinal proteases. The series can be described thus: human gastrointestinal proteases. The note with it: cited from earlier work.

Turning to Cbz-Gly-Pro-pNA, the cleaved bond result with PSP692 [1] is “Pro-pNA”.

For the substance Cbz-Pro-Pro-Phe-pNA, the cleaved bond entry in the series on PSP464 [2] is recorded as “Phe-pNA”.

Take GPQQSFPEQEA [11-mer]: the “intensity of parent peak (m/z ~1,218, +1) after incubation with PSP464” value in the series on PSP464 [3] (all digestion time points, 30 min to 4 h, pooled duplicates) is listed as “reduced”. The “peptide fragments formed from 11-mer by PSP464 (m/z 998 and 872)” value in the series on PSP464 [3] (sequential C-terminal cleavage, sequences assigned from m/z) was “GPQQSFPEQ and GPQQSFPE”.

For LQLQPFPQPQLPYPQPQLPYPQPQLPYPQPQPF, the fragment found entry with PSP692 [4] is reported as “LQLQP, major, 30 min; also recorded: QPFPQ; also recorded: QLQPFP, major, 30 min”. In addition, the not cleaved result in series [5] is listed as “evades degradation by human gastrointestinal proteases”.
